Key:
[1] = tested on: Mel Im melanoma cells; assay: Boyden chamber invasion assay (MIA activity); format: cell-based, human
Description: Invasion assays were performed in Boyden Chambers containing polycarbonate filters with 8-μm pore size (Neuro Probe, Gaithersburg, Md., USA) essentially as described previously.^13 Filters were coated with matrigel, a commercially available reconstituted basement membrane (diluted 1:3 in H2O; BD Bioscience, Bradford, Mass., USA). The lower compartment was filled with fibroblast-conditioned medium used as a chemo attractant. Mel Im melanoma cells were harvested by trypsinization for 2 min at RT, resuspended in DMEM without FCS at a density 2.5×10^4 cells/mL, and placed in the upper compartment of the chamber. Except for the control experiment with untreated cells and experiments where cells were only treated with the respective peptide, MIA was added to the cell suspension at a final concentration of 200 ng/mL. Peptide AR71 (sequence: Ac-FHWRYPLPLPGQ-NH2) was used at a final concentration of 1 μM. MIA expressing murine B16 melanoma cells stably co-transfected with Sig-AR71-HisTag containing pCMX-PL1 vector^27 and an antibiotic resistance comprising plasmid (pCDNA3), and the respective mock control were also investigated for their ability to migrate. Therefore, cells were harvested by trypsinization for 2 min at RT, resuspended in DMEM without FCS at a density 2.5×10^4 cells/mL, and placed in the upper compartment of the chamber. After incubation at 37° C. for 4 h filters were removed. Cells adhering to the lower surface of the filter were fixed, stained, and counted. Experiments were carried out in triplicates and repeated at least three times.

[2] = target: T1, MIA (Homo sapiens, UniProt Q16674); assay: NMR titration of 15N-labeled MIA with peptide; format: binding; conditions: unlabeled peptide, increasing amounts
T1 sequence (Q16674 25-131): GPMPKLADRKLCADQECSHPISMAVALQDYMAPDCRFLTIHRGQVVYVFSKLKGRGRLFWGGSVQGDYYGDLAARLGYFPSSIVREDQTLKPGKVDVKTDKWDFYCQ
Description: All spectra were recorded at 300 K and pH 7 on a Bruker DRX600 spectrometer equipped with a pulsed field gradient triple resonance probe. Water suppression in experiments recorded on samples in H2O was achieved by incorporation of a Watergate sequence into the various pulse sequences.^28-30 2D ^1H-^15N HSQC spectra with reduced signal loss due to fast exchanging protons were recorded using procedures described previously.^31 All spectra were processed with NMRPipe and analyzed with NMRView.^32-33 Data handling was performed with NMRView. Structure visualisation and superimpositions were done with PyMol (Delano, W. L., The PyMol Molecular Graphics System (2002) Delano Scientific, Palo Alto, Calif., USA).
The NMR titration of MIA with AR71 consisted of monitoring changes in chemical shifts and line widths of the backbone amide resonances of uniformly ^15N-enriched MIA samples as a function of ligand concentration.^34-37

[3] = tested on: murine B16 melanoma cells; assay: In vivo metastasis assay, wt B16 cells injected into spleen, i.v. AR71 treatment; set-up: species or system mice; conditions: i.v. 50 μg every 24 h
Description: Additionally, 1×10^5 wt mouse melanoma B16 cells suspended in a solution containing AR71 (1 mg/mL) and 0.9% NaCl, or NaCl alone for the control mice, respectively, were injected into the spleen of each animal (n=8 for treated mice, as well as for control without AR71). Peptide AR71 was injected i.v. (50 μg every 24 h). After nine days, the mice were sacrificed and the livers were excised. Following formalin fixation, tissues were embedded in paraffin. Afterwards, sections were prepared and stained using hematoxylin and eosin before being subjected to histological analysis.
Therefore, wild type murine B16 melanoma cells were injected into the spleen of C57B16 mice with the mice being subsequently treated with i.v. injections of AR71 (50 μg every 24 h). After nine days, the mice were sacrificed, the livers were resected and again tissue sections were prepared. […] Four representative histological liver sections (hematoxylin and eosin stained) of untreated and treated mice, respectively, are shown in FIG. 4E.

Ac-FHWRYPLPLPGQ-NH2 [AR71, FHWRYPLPLPGQ]
neutralization of the MIA effect on cell invasion ([1]; MIA 200 ng/mL pre-incubated with peptide 1 μM, Mel Im cells (FIG. 2C)): complete neutralization of the effect caused by MIA | migratory behaviour of cells treated with peptide alone ([1]; peptide in absence of MIA, Mel Im cells): does not influence the migratory behaviour of melanoma cells | binding of peptide to MIA (chemical shift perturbations) [2]: MIA binds to this peptide ligand | adverse effects on other organs and tissues ([3]; nine days): no adverse effects on other organs and tissues were observed | average number of metastases in the liver compared to untreated control mice ([3]; nine days (FIG. 4D)): significant reduction of the average number of metastases in the liver
